Test results taken from ChEMBL document CHEMBL1250534, “Gentisides C-K: nine new neuritogenic compounds from the traditional Chinese medicine Gentiana rigescens Franch” (2010).
Active and inactive are the calls of the source. No cut-off for these calls is given here.

Columns and labels:
[1] = system: PC-12; assay: Neuritogenic activity in rat PC12 cells assessed as induction of multipolar neurite outgrowth at 1 uM after 48 hrs; format: functional, cell-based
[2] = system: PC-12; assay: Neuritogenic activity in rat PC12 cells assessed as induction of neurite outgrowth after 48 hrs; format: functional, cell-based
[3] = system: PC-12; assay: Cytotoxicity against rat PC12 cells at 1 uM; format: functional, cell-based
[4] = system: PC-12; assay: Neuritogenic activity in rat PC12 cells assessed as induction of neurite outgrowth at 0.03 uM after 48 hrs; format: functional, cell-based
[5] = system: PC-12; assay: Neuritogenic activity in rat PC12 cells assessed as induction of neurite outgrowth at 1 uM after 48 hrs; format: functional
[6] = system: PC-12; assay: Neuritogenic activity in rat PC12 cells assessed as induction of bipolar neurite outgrowth at 1 uM after 48 hrs; format: functional, cell-based
[7] = system: PC-12; assay: Neuritogenic activity in rat PC12 cells assessed as induction of neurite outgrowth at 1 to 30 uM after 48 hrs; format: functional
[8] = system: PC-12; assay: Neuritogenic activity in rat PC12 cells assessed as induction of neurite outgrowth at 30 uM after 48 hrs; format: functional

**Q.** With CC[C@H](C)CCCCCCCCCCCCCOC(=O)c1cccc(O)c1O [GENTISIDE C] as the molecule, how does the Activity [1] read?
**A.** Active

**Q.** What about the Activity [2] of the same molecule?
**A.** Dose-dependent effect

**Q.** And the Activity [3]?
**A.** inactive

**Q.** What about the Activity [4] of the same molecule?
**A.** Active

**Q.** What about the Activity [5] of the same molecule?
**A.** 91%

**Q.** What about the Activity [6] of the same molecule?
**A.** Active

**Q.** What about the Activity [7] of the same molecule?
**A.** 67%

**Q.** For CC(C)CCCCCCCCCCCCCCCOC(=O)c1cccc(O)c1O [GENTISIDE D], which Activity [7] is on record?
**A.** 67%

**Q.** With CCCCCCCCCCCCCCCCCCOC(=O)c1cccc(O)c1O [GENTISIDE E] as the molecule, how does the Activity [7] read?
**A.** 67%

**Q.** How did the Activity [7] turn out when CC[C@H](C)CCCCCCCCCCCCCCCOC(=O)c1cccc(O)c1O [GENTISIDE F] was run?
**A.** 67%

**Q.** With CC[C@H](C)CCCCCCCCCCCCCCCCOC(=O)c1cccc(O)c1O [GENTISIDE G] as the molecule, how does the Activity [7] read?
**A.** 67%

**Q.** CC[C@H](C)CCCCCCCCCCCCCCCCCOC(=O)c1cccc(O)c1O [GENTISIDE H] was tested. Which Activity [7] did it give?
**A.** 67%

**Q.** Which Activity [7] does the source give for CCCCCCCCCCCCCCCCCCCCCOC(=O)c1cccc(O)c1O [GENTISIDE I] here?
**A.** 67%

**Q.** How did the Activity [7] turn out when CCCCCCCCCCCCCCCCCCCCCCOC(=O)c1cccc(O)c1O [GENTISIDE J] was run?
**A.** 67%

**Q.** Which Activity [8] does the source give for CCCCCCCCCCCCCCCCCCCCCCCCOC(=O)c1cccc(O)c1O [GENTISIDE K] here?
**A.** 48%
